Results: US6673839B1, “Pharmaceutical compositions with antitumour activity” (Universita' Degli Studi di Catania, priority 1998, dated 2004)
Where a name gives a salt, the structure may show the parent alone.

Tests used:
[1] = test system: multirecurrent urinary bladder neoplasia; test: Patients with urinary bladder multirecurrent neoplasia treated orally; type: in vivo, human
Description: 10 patients, 8 males and 2 females, of age from 55 to 75 years, all affected with multirecurrent urinary bladder neoplasia, at stages ranging from pT1G1NxMx and pT2G3NxMx, were orally treated with L-aC, at a standard dosage of 2 g/day, for a time from 10 to 12 months. They were then subjected to follow-up ranging from 6 to 22 months.
Before treatment with L-aC, patients had undergone an individual number of endoscopic resections (Turb), varying from 6 to 19 and in 1 case partial cystectomy with ureterocystoneostomy had been performed.
In all patients, treatment with L-aC started immediately after endoscopic resection.
Patients were subjected to quarterly endoscopic verification for the first year from the beginning of the treatment.
After 4 negative quarterly controls, the endoscopic control was performed every six months for a duration of 2 years.

[2] = test system: cells from 4 primitive epidermoid carcinomas of the larynx and 1 primitive undifferentiated carcinoma of the nasopharynx; test: Effects of L-aC on cell cycle of cultured primitive human tumour cells (cytofluorimetric analysis); type: cell-based
Description: (§1) The effects of L-aC on cells from 4 primitive epidermoid carcinomas of the larynx and 1 primitive undifferentiated carcinoma of the nasopharynx were tested.
Tissue fragments from the tumour mass were mechanically dissociated in Hank's solutions adding an antibiotic and an antifungal to obtain a cell monosuspension free of agglomerates. The resulting suspension was centrifuged at 1200 rpm for 5 m′ and the pellet was resuspended in MEM culture medium supplemented with 10% of patient serum, to obtain a concentration of 2−3×10^4 cells/ml of medium. 1 ml Samples were prepared from the suspension, in amounts equivalent to the number of the concentrations to be assayed (0.2-20 mg/ml) as well as a control sample.
The suspensions were exposed to the medicament in Dubnoff bath at 37° C. for 24 h, then centrifuged and resuspended in 1 ml of fixing solution (tris buffer+methanol (1:3)) for 30 minutes and finally stained with 0.5% propyl iodide with simultaneous treatment with RNase.
Cytofluorimetric analysis in order to evaluate the percentage distribution of the cell cycle phases, was performed by an Ortho Diagnostic Spectrum III cytofluorigraph, equipped with Graphic Method computerized program.
The evaluation of the cell sensitivity to the medicament was based on the extent of the perturbations induced by L-aC on the cell cycle.

[3] = test system: Cells from Nasopharynx Carcinoma Explant; test: In vitro short-term chemosensitivity assay (MTT); type: cell-based, human; details: Table 1, 24 h
Description: as §1
Tissue fragments from the tumour mass were mechanically dissociated in Hank's solutions adding an antibiotic and an antifungal to obtain a cell monosuspension free of agglomerates. The resulting suspension was centrifuged at 1200 rpm for 5 minutes and the pellet was resuspended in MEM culture medium supplemented with 10% of patient serum, to obtain a concentration of 10^5 cells/ml. Subsequently, 180 μl of the resulting suspension were dispensed in microplate wells and incubated under 5% CO2 atmosphere at 37° C. for 3 days. After that, the antitumor medicaments were added in the amount of 20 μl for each well, at a concentration of 0.1×, 1× and 10× the maximum serum concentrations that can usually be reached in clinical practice. 24 h after the beginning of the exposure to the antitumour medicament, 100 μl of MTT were added, and after 4 h, a further 150 μl of dimethylsulfoxide were added.
The optical density was evaluated by a Uniscan microspectrophotometer with a […] wavelength filter. Cytotoxicity was evaluated as percentage of the optical density of the treated sample compared with the optical density of the control.
Bleomycin (BLEC), […] (CDDP), 5-fluoruracil (5-FU), vincristine (VCR), epidoxorubicin (Epi-Dx) and methotrexate (MTX) were tested for comparison purposes.
L-aC was tested at the following concentrations: 0.2-2-20 mg/ml.
In vitro short-term chemosensitivity assay (according to Hill and coll.)
(Cell Vitality Percentage After Exposure to the Antitumoral)—Raw Data
(Cells from Nasopharynx Carcinoma Explant)

[4] = test system: prostate (Du 145) adenocarcinoma cell line; test: Methylene blue assay on stabilized human neoplastic cell lines; type: cell-based; details: prostate carcinoma line
Description: (§2) The effects of L-aC on stabilized human neoplastic cell lines were tested using the methylene blue assay.
(§3) Acute promyelocytic leukemia cell line (HL60) and prostate (Du 145), colon (HT 29) and breast (MCF 7) adenocarcinoma cell lines have been used.
(§4) Cell suspensions at concentrations of 10^5 cells/ml were prepared.
(§5) 100 μl of the obtained cell suspension were inoculated on 96 well plates and incubated at 37° for 12 hours, to obtain cell adhesion to the plates. After 12 hours, L-aC was added at the concentrations of 0.2 mg/ml, 2 mg/ml, 20 mg/ml. After 72 hours, the culture medium was removed and 100 μl of 100% ethanol were added for 30 min. Subsequently ethanol was removed and 1% methylene-blue was added for 2 hours. The dye was then removed and the plates were dried before adding 1M HCl.
(§6) The cytotoxicity percentage was calculated using the following formula:
(§7) (1−[O^D treated cells/O^D control cells)×100.
(§8) The optical density was evaluated by Uniskan micro-spectrophotometer with 630 nmwavelength filter.

[5] = test system: Acute promyelocytic leukemia cell line (HL60); test: as above; type: cell-based
Description: as §2, §3, §4, §5, §6, §7, §8

[6] = test system: tumour cells from lymph nodes; test: Effects of L-aC on cell cycle of cultured secondary human tumour cells; type: cell-based; details: 20 mg/ml
Description: L-aC was tested on tumour cells from lymph nodes taken from the same patients from which the primitive neoplasms had been taken.

[7] = test system: colon (HT 29) adenocarcinoma cell line; test: Methylene blue assay on stabilized human neoplastic cell lines; type: cell-based
Description: as §2, §3, §4
as §5, with “After 72 hours, the culture medium was removed and 100 μl of 100% ethanol were added for 30 min.” left out
as §6, §7, §8
(§9) The induction of apoptosis (appraised by Giemsa staining) was remarkable mainly on stabilized human neoplastic cell lines from breast and colon carcinomas.

[8] = test system: breast (MCF 7) adenocarcinoma cell line; test: as above; type: cell-based
Description: as §2, §3, §4
as §5, with “After 72 hours, the culture medium was removed and 100 μl of 100% ethanol were added for 30 min.” left out
as §6, §7, §8, §9

[9] = test system: HL60, Du 145, HT 29 and MCF 7 cell lines; test: Sensitivity and apoptosis in all assayed stabilized human neoplastic cell lines; type: cell-based
Description: as §2, §3, §4, §5
The induction of apoptosis has been detected due to nuclear cromatin condensation, cytoplasmic shrinking, endoplasmic reticulum dilatation and membrane blebbing together with DNA fragmentation.

[10] = 20 mg/ml, 48 hours after exposure

For `CC(=O)OC(CC(=O)[O-])C[N+](C)(C)C` [L-aC, L-acetylcarnitine hydrochloride], the “disease status at follow-up” value ([1]; 2 patients completed follow-up, 6 still under study) was “free from the disease”, the “endoscopic control for tumour” value ([1]; 10 patients, oral 2 g/day 10 to 12 months after endoscopic resection, first and subsequent quarterly controls) was “all patients were negative for the tumour” and the “hematochemical parameters and side effects during treatment” value ([1]; oral 2 g/day, 10 to 12 months) was “Neither significant changes in the hematochemical parameters nor side effects of any kind were observed”. The “increase in the percentage of S phase cells compared with the control” value ([2]; 0.2 mg/ml, 24 h, all samples) was “about 10%”, the “effect on cell cycle” value ([2]; 20 mg/ml, 24 h) was “block in the percentage of the cells in G1 phase” and the “G1/S+G2M ratio after the treatment” value ([2]; 20 mg/ml, tumour with pre-treatment ratio 31/69) was 70/30. The “Cell Vitality Percentage After Exposure” value ([3]; 0.1x maximum clinical serum concentration (L-aC tested at 0.2-2-20 mg/ml)) was 58%, the “Cell Vitality Percentage After Exposure” value ([3]; 1x maximum clinical serum concentration) was 4.8% and the “Cell Vitality Percentage After Exposure” value ([3]; 10x maximum clinical serum concentration) was 4%. The cytotoxicity [4] was 58%, the cytotoxicity [5] was 52% and the “activity versus that on cells from the primitive tumours” value ([6]; all samples) was “comparable”. The “G1/S+G2M ratio after treatment” value ([6]; tumour with pre-treatment ratio 20/80) was 74/26, the “cytotoxicity (percentage of dead cells)” value [7, 10] was 63% and the “induction of apoptosis (Giemsa staining)” value ([7]; colon carcinoma line) was “remarkable”. The “cytotoxicity (percentage of dead cells)” value [8, 10] was 68%, the “induction of apoptosis (Giemsa staining)” value ([8]; breast carcinoma line) was “remarkable” and the “programmed cell death phenomena” value ([9]; 0.2 mg/ml, all assayed cell lines) was “Phenomena suggestive of programmed cell death were already observed”. For the same compound, the “programmed cell death phenomena” value ([9]; 2 mg/ml) was “more marked and evident”, the “change of effect over concentration range” value ([9]; 2 to 20 mg/ml) was “No significant changes” and the “sensitivity of the tested cell lines” value ([9]; all tested cell lines) was “sensitive”.
